Assay [1] concerns the target Met (Homo sapiens, UniProt P08581). Description: Met autophosphorylation ELISA in PC-3 cells. The class given is cell-based. Also on record: endogenous in cells; host or cells: PC-3 prostate cancer cells (ATCC #CRL-1435). To be noted: Table 3 Cellular Activities, HGF-stimulated, phospho-Met ELISA, read-out: c-Met IC50. In short, it runs like this: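 IC50 derived by 4-parameter logistic regression of phospho-Met (panTyr) sandwich ELISA signal, scaled between HGF-stimulated DMSO and reference-inhibitor lysates. PC-3 cells, serum-starved 3 h, received an 8-point compound series (0.3% DMSO) for 1 h before 10 min stimulation with 100 ng/mL human HGF.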

The target in assay [2] is T1, AXL (Homo sapiens, UniProt P30530).
T1 construct: endogenous in cells; host or cells: A-172 glioblastoma cells (ATCC #CRL-1620)
T1 sequence (P30530 26-894): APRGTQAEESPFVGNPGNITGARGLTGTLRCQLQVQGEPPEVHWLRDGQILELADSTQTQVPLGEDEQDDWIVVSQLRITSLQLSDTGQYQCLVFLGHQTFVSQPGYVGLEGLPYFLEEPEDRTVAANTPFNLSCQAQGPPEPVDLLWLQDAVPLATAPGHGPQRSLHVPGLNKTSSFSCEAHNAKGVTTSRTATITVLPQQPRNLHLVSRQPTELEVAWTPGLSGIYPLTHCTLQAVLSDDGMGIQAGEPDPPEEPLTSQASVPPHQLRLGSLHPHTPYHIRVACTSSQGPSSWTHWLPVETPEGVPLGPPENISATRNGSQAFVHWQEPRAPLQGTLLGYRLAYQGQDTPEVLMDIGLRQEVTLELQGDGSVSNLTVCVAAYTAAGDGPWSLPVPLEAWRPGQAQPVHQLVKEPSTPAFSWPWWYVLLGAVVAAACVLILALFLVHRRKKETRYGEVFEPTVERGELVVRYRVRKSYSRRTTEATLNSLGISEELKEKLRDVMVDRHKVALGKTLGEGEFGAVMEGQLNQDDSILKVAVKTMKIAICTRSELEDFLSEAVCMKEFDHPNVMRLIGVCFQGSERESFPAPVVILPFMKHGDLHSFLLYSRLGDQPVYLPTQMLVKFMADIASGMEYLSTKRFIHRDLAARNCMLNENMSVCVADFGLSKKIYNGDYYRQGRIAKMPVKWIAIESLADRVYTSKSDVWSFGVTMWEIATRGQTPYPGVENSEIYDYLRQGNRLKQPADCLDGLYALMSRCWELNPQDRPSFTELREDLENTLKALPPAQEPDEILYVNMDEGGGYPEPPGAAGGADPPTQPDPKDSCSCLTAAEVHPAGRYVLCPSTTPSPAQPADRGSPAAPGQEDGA
Description: AXL autophosphorylation ELISA in A-172 cells. To be noted: Table 3 Cellular Activities, Gas6-stimulated, phospho-AXL ELISA. In kind it is cell-based. In a few lines:
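Phospho-AXL in lysates measured by ELISA after Gas6 stimulation (1 μg/mL, 15 min) of A-172 cells pre-incubated 1 h with an 8-point compound dilution series in 0.3% DMSO after 24 h serum starvation. IC50 by 4-parameter logistic fit, with DMSO-treated and reference-inhibitor wells as 100% and 0% activity.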

Chain of Met (P08581 25-1390): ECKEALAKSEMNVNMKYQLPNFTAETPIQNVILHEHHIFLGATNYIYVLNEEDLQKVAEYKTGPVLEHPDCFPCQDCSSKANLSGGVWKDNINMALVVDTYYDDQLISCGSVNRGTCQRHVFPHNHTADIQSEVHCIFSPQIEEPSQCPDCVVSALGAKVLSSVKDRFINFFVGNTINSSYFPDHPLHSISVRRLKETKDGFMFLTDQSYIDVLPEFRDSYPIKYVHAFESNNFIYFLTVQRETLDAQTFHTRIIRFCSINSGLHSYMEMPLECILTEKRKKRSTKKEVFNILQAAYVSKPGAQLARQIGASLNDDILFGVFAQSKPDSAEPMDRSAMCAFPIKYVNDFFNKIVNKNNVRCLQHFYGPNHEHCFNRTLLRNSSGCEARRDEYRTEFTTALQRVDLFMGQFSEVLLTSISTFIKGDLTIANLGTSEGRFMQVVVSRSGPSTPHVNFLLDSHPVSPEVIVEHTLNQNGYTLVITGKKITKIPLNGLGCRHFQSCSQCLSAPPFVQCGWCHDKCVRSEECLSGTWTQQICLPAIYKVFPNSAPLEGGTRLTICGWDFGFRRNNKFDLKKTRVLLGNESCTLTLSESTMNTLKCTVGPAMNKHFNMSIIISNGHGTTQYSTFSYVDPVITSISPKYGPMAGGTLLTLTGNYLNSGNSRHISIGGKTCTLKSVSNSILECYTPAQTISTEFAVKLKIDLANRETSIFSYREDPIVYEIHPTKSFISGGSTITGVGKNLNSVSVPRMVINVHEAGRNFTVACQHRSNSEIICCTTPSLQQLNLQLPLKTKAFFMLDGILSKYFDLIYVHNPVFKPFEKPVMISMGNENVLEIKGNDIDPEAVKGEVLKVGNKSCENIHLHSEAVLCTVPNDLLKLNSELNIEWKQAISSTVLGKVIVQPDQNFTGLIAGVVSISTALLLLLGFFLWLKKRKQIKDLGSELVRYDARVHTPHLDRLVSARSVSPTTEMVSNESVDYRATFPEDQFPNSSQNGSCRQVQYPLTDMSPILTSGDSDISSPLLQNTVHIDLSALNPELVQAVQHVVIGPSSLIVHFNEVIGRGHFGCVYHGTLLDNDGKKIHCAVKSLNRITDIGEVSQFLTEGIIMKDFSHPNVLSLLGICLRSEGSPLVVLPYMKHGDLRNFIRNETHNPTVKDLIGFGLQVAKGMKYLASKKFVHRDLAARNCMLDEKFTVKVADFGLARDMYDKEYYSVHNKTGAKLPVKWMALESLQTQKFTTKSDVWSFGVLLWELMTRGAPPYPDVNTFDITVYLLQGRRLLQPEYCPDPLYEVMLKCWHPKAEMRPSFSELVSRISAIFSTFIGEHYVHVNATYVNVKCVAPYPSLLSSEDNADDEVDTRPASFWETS

In the case of `COc1cc2nccc(Oc3ccc(NC(=O)c4c5n(c(C)c(-c6ccsc6)c4=O)CCOC5)cc3F)c2nc1OC` [Compound 307, N-[4-[(6,7-Dimethoxy-1,5-naphthyridin-4-yl)oxy]-3-fluorophenyl]-6-methyl-8-oxo-7-thiophen-3-yl-3,4-dihydro-1H-pyrido[2,1-c][1,4]oxazine-9-carboxamide], the IC50 in assay [1] and in assay [2] was no more than 100 nM in each case.

For `COc1cc2nccc(Oc3ccc(NC(=O)c4c5n(cc(-c6cccs6)c4=O)CCOC5)cc3F)c2nc1OC` [Compound 309, N-[4-[(6,7-Dimethoxy-1,5-naphthyridin-4-yl)oxy]-3-fluorophenyl]-8-oxo-7-thiophen-2-yl-3,4-dihydro-1H-pyrido[2,1-c][1,4]oxazine-9-carboxamide], the 50% inhibitory concentration (IC50) in assay [1] and in assay [2] was no more than 100 nM each time.

As to `COc1cc2nccc(Oc3ccc(NC(=O)c4c5n(cc(-c6ccoc6)c4=O)CCOC5)cc3)c2nc1OC` [Compound 310, N-[4-[(6,7-Dimethoxy-1,5-naphthyridin-4-yl)oxy]phenyl]-7-(furan-3-yl)-8-oxo-3,4-dihydro-1H-pyrido[2,1-c][1,4]oxazine-9-carboxamide], the IC50 – broadly, the midpoint of a concentration-inhibition curve – was 300 to 1000 nM in assay [1] and no more than 100 nM in assay [2].

For `CCc1c(C(=O)Nc2ccc(Oc3ccnc4cc(OC)c(OC)nc34)c(F)c2)c(=O)c(-c2ccco2)c(C)n1C` [Compound 324, N-[4-[(6,7-Dimethoxy-1,5-naphthyridin-4-yl)oxy]-3-fluorophenyl]-2-ethyl-5-(furan-2-yl)-1,6-dimethyl-4-oxopyridine-3-carboxamide], the IC50 in assay [1] and in assay [2] was no more than 100 nM throughout.

In the case of `COc1cc2nccc(Oc3ccc(NC(=O)c4cn(CCF)c(C)c(-c5cccs5)c4=O)cc3F)c2nc1OC` [Compound 327, N-[4-[(6,7-Dimethoxy-1,5-naphthyridin-4-yl)oxy]-3-fluorophenyl]-1-(2-fluoroethyl)-6-methyl-4-oxo-5-thiophen-2-ylpyridine-3-carboxamide], the IC50 in assay [1] and in assay [2] was no more than 100 nM throughout.

Regarding `COc1cnc2c(Oc3ccc(NC(=O)c4cn(CCF)c(C)c(-c5cc(C)cs5)c4=O)cc3F)ccnc2c1` [Compound 328, 1-(2-Fluoroethyl)-N-[3-fluoro-4-[(7-methoxy-1,5-naphthyridin-4-yl)oxy]phenyl]-6-methyl-5-(4-methylthiophen-2-yl)-4-oxopyridine-3-carboxamide], the half-maximal inhibitory concentration (IC50) in assay [1] and in assay [2] was no more than 100 nM throughout.

Source of the values: US20230151003A1, “COMPOUNDS AND METHODS OF USE” (Exelixis, Inc., priority 2020, published 2023).
